According to ChEMBL document CHEMBL1201862, “PubChem BioAssay data set” (2004):
“And” between values parts separate entries of the source, which are not always exact repeats. Equal entries are not always repeated. The source made the active and inactive calls.

How the values were obtained:
Cytochrome P450 2D6 = Cytochrome P450 2D6 (Homo sapiens, UniProt P10635);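 also: CYP2D6 member of a cytochrome P450 panel assay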
Cytochrome P450 2C19 = Cytochrome P450 2C19 (Homo sapiens, UniProt P33261); assay: Cytochrome panel assay with activity outcomes. Panel member name: p450-cyp2c19 Compounds with AC50 equal or less than 10 uM are considered active; assay type: functional; settings: read-out: AC50
Cytochrome P450 1A2 = molecular target: T1, Cytochrome P450 1A2 (Homo sapiens, UniProt P05177);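 also: PubChem cytochrome P450 panel assay, CYP1A2 panel member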
T1 sequence (P05177 whole entry): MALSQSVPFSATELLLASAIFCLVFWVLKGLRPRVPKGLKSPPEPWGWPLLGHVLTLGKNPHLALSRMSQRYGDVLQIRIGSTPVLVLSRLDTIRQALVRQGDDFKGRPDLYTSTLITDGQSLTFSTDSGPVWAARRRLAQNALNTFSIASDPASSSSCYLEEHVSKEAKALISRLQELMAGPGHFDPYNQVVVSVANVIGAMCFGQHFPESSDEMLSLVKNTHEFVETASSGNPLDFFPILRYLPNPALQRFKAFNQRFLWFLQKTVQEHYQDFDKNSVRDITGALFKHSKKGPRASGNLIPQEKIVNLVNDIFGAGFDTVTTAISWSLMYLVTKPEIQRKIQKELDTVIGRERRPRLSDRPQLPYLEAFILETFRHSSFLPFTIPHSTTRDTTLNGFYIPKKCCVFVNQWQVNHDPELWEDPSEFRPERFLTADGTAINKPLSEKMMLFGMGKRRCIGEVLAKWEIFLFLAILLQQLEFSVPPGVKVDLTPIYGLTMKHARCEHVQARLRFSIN

[1] = molecular target: T2, Polyadenylate-binding protein 1 (Homo sapiens, UniProt P11940); assay: MLLE binding blockers, Cy5 peptide tracer – biochemical, fluorescence polarization, Cy5-PAM2 peptide, secondary, miRNA deadenylation inhibitor project, dose response (AID 602260); assay type: functional; settings: read-out: IC50_Mean
[2] = molecular target: T2, Polyadenylate-binding protein 1; assay: MLLE domain peptide-binding blockers, IC50 – biochemical, fluorescence polarization, FITC-PAM2 peptide, dose response (AID 602259); assay type: functional; settings: read-out: IC50_Mean
[3] = luciferase reporter signal suppression in cells – H4 neuroglioma cells, luminescence, dose response (AID 1990); assay type: functional, cell-based
[4] = Luminescence Cell-Based Dose Response HTS to Identify Inhibitors of 5'UTR Stem-Loop Driven Prion Protein mRNA Translation in H4 Neuroglioblastoma Cells. [Related pubchem assays: 1827 (Project Summary), 1813 (Primary HTS)]; assay type: functional
[5] = alpha-synuclein stem-loop luciferase translation blockers – H4 neuroglioma cells, luminescence, confirmation (AID 1988); assay type: functional, cell-based
INS1 = assay: INS-1E survival protection against cytokine death – cell-based, luminescence, retest, dose response (AID 449756); assay type: functional; settings: Rattus norvegicus;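 also: cell death triggered by IL-1 beta plus TNF-alpha plus IFN-gamma mixture; protective hits raise ATP signal compared with cytokine alone wells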
Cytochrome P450 3A4 = Cytochrome P450 3A4 (Homo sapiens, UniProt P08684);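 also: CYP3A4 tested as one member of a cytochrome P450 panel screen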
Cytochrome P450 2C9 = Cytochrome P450 2C9 (Homo sapiens, UniProt P11712)
Genome polyprotein = Genome polyprotein (dengue virus type 2, UniProt P29990); assay: flavivirus cap methylation enzyme inhibition – biochemical, confirmation dose response, primary screen (AID 588689); assay type: functional
H9c2 = assay: cells; assay type: functional, cell-based; settings: Rattus norvegicus, H9c2, Myocardium;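 also: confirmatory concentration-response retest of ultra-high-throughput screening hits for modulation of myocardial damage; cell death induced by hydrogen peroxide oxidative stress; compound pretreatment for 60 min then peroxide exposure for 2 h; potency is for protecting the cells against peroxide damage rather than for killing them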
[6] = tested on: Streptococcus sp. 'group A'; assay: Streptococcus pyogenes SK(-)GAS viability under kanamycin – luminescence, BacTiterGlo, confirmation, counter-screen for streptokinase expression inhibitor project, dose response (AID 1900); assay type: functional, organism-based
Streptokinase A = molecular target: T3, Streptokinase A (Streptococcus pyogenes serotype M1, UniProt P10520); assay: viability-normalized secreted streptokinase activity reduction – plasminogen activation absorbance, OD405, dose response (AID 1914); assay type: functional, Streptococcus pyogenes M1 GAS;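 also: secreted streptokinase activity via plasminogen activation per viability signal from cell pellet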
T3 sequence (P10520 whole entry): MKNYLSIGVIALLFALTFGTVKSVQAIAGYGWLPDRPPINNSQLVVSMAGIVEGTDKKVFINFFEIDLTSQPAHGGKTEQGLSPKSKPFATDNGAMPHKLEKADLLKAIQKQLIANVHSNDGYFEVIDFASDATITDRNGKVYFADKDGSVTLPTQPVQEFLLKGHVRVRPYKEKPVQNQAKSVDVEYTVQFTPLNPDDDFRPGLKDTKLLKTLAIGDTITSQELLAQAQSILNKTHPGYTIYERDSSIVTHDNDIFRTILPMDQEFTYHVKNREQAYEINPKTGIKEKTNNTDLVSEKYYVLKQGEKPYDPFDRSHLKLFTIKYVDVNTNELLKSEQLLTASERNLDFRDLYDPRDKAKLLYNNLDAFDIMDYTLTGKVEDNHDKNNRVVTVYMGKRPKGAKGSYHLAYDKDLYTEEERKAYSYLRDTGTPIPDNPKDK

Streptococcus = assay: GAS UMAA2166 growth inhibition – luminescence, BacTiterGlo, counter-screen for streptokinase expression inhibitor project, dose response (AID 1915); assay type: functional, organism-based;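 also: potency for reduction of bacterial viability or growth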
[7] = Luminescence Cell-Based Dose Response HTS to Identify Activators of Luciferase Translation or Activity in H4 […] Cells. [Related pubchem assays: 1829 (Project Summary), 1814 (Primary HTS)]; assay type: functional
H4 = assay: Luminescence Cell-Based Dose Response HTS to Identify Activators of 5'UTR Stem-Loop Driven Prion Protein mRNA Translation in H4 Neuroglioblastoma Cells. [Related pubchem assays: 1829 (Project Summary), 1814 (Primary HTS)]; assay type: functional; settings: Homo sapiens
[8] = Trypanosoma cruzi growth suppression in host cells – NIH3T3 host cells, beta-gal luminescence, confirmation (AID 2044); assay type: functional, cell-based;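 also: intracellular parasites grown in NIH/3T3 mouse fibroblasts as host cells; luminescent beta-galactosidase reporter signal from transgenic T. cruzi replicating inside host cells; inhibitors lower the luminescence signal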
[9] = NIH3T3 cell viability loss – ATP luminescence, mouse fibroblasts, counter-screen, dose response (AID 2010); assay type: functional, cell-based;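 also: cells exposed to compound for about 90 hours before reading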
[10] = molecular target: T4, Heat shock factor protein 1 (Mus musculus, UniProt P38532); assay: decrease of HSF1-responsive luciferase luminescence – cell-based, NIH3T3, dose retest, confirmation (AID 2382); assay type: functional;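 also: NIH3T3 fibroblasts with HSF1-driven luciferase reporter stressed by proteasome inhibitor MG132; luminescence from HSF1-driven luciferase expression after 8 hours of MG132 stress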
T4 sequence (P38532 whole entry): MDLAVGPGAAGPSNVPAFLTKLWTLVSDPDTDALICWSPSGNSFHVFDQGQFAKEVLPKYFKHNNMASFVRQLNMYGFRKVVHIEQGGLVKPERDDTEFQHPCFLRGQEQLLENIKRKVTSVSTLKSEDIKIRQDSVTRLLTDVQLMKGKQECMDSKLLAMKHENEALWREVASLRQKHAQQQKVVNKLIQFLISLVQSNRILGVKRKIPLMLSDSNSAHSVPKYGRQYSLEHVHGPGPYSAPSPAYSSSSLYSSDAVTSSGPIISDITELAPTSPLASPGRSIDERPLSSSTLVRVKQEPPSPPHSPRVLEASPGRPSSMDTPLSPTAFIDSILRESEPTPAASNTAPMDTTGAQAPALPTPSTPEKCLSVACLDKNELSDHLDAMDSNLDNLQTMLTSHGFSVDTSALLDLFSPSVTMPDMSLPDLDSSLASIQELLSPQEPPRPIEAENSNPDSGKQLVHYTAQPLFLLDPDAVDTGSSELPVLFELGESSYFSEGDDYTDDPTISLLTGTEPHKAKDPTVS

In the case of CCOC(=O)C1=C(O)C(=O)N(Cc2ccccc2)C1, the AC50 (Cytochrome P450 2D6) is reported as 31.6 µM (inconclusive).
With OCCN1CCN(CC/C=C2\c3ccccc3Sc3ccc(C(F)(F)F)cc32)CC1 [E-FLUPENTIXOL] the AC50 (Cytochrome P450 2D6) was 6.31 µM (inconclusive) and 31.6 µM (inconclusive).
For CCCCC#Cc1nc(NC)c2ncn([C@@H]3O[C@@H](CO)[C@H](O)[C@H]3O)c2n1, the AC50 (Cytochrome P450 2C19) was 3.16 µM (inconclusive), the AC50 (Cytochrome P450 2D6) was 31.6 µM (inconclusive) and the AC50 (Cytochrome P450 1A2) was 31.6 µM (inconclusive).
In the case of O=C1/C(=C/c2cccnc2)SC(=S)N1c1ccc(F)cc1, the IC50 [1] is reported as > 66 µM (inactive) and the IC50 [2] is reported as > 66 µM (inactive).
With O=C(N/N=C/c1cnc(N2CCCCC2)s1)c1ccc(C(F)(F)F)cc1 the EC50 [3] was 12 µM (active), the EC50 [4] was > 120 µM (not active) and the EC50 [5] was 9.6 µM (active). The AC50 (INS1) was 4.54 µM (active).
With O=C(CSc1nnc(-c2cccnc2)o1)Nc1ccccc1F the IC50 [1] was > 66 µM (inactive) and the IC50 [2] was > 66 µM (inactive).
In the case of COc1ccc(CONS(=O)(=O)c2ccc(NC(C)=O)cc2)cc1Cl, the AC50 (Cytochrome P450 2D6) is reported as 3.55 µM (inconclusive).
With C(=N\N(c1ccccc1)c1ccccc1)/c1ccc2c(c1)OCO2 the AC50 (Cytochrome P450 2C19) was 2.51 µM (inconclusive), the AC50 (Cytochrome P450 2D6) was 10 µM (inconclusive) and the AC50 (Cytochrome P450 3A4) was 15.8 µM (inconclusive). The AC50 (Cytochrome P450 2C9) was 8.91 µM (inconclusive).
With O=C(/C=C\c1ccc(O)c(O)c1)OCCc1ccccc1 the AC50 (Cytochrome P450 2D6) was 39.8 µM (inconclusive) and the AC50 (Cytochrome P450 2C9) was 39.8 µM (inconclusive).
With COc1c2c(c3c(c1OC)c(=O)c1ccccc1n3C)OCO2 the IC50 [1] was > 66 µM (inactive) and the IC50 [2] was 41.7 µM (inactive).
In the case of CC(=O)c1c(C)cc(C)c(CSc2nc(C)cc(=O)[nH]2)c1C, the IC50 [1] is reported as > 66 µM (inactive) and the IC50 [2] is reported as > 66 µM (inactive).
For COc1cc(C2c3sc(O)nc3SC3C(=O)N(c4ccc(Br)cc4)C(=O)C32)ccc1O (stereo not drawn), the IC50 [1] was > 66 µM (inactive) and the IC50 [2] was > 66 µM (inactive).
With COc1ccc2c([N+](=O)[O-])c(Cl)[nH]c2c1 the IC50 (Genome polyprotein) was > 100 µM (active).
With COC(=O)CCC(=O)OC1(C)C(=O)C2=CN(Cc3ccccc3)C(c3ccc(OC)cc3)=CC2=C(Br)C1=O (stereo not drawn) the IC50 (Genome polyprotein) was 39.1 µM (active).
In the case of O=C1c2ccccc2NC(c2ccc(Cl)cc2Cl)N1O (stereo not drawn), the IC50 (H9c2) is reported as > 79 µM (inactive), the AC50 (Cytochrome P450 2D6) is reported as 14.1 µM (inconclusive) and the AC50 (Cytochrome P450 2C9) is reported as 25.1 µM (inconclusive).
For Cc1ccc(NC(=O)C2(NC(=O)c3cccc(N4C(=O)CSC4c4ccccc4)c3)CCCCC2)cc1 (stereo not drawn), the EC50 [3] was > 120 µM (not active), the EC50 [4] was > 120 µM (not active) and the EC50 [5] was > 120 µM (not active). For the same compound, the AC50 (Cytochrome P450 2D6) was 1.12 µM (inconclusive).
In the case of CCN(CC)c1ccc(/C=N/NC(=S)NCc2ccccc2)c(O)c1, the EC50 [6] is reported as 49.2 µM (active), the EC50 (Streptokinase A) is reported as > 150 µM (not active) and the EC50 (Streptococcus) is reported as > 150 µM (not active). For the same compound, the AC50 (INS1) was 0.712 µM (active).
For COc1ccc(-c2cc(C(=O)N3CCN(c4ccccn4)CC3)c3ccccc3n2)cc1, the EC50 [7] was > 120 µM (not active) and the EC50 (H4) was 7.36 µM (active).
With COC(=O)C1=C(C)OC(N)=C(C#N)C1C1CCCCC1 (stereo not drawn) the AC50 (Cytochrome P450 2D6) was 31.6 µM (inconclusive) and the AC50 (Cytochrome P450 1A2) was 15.8 µM (inconclusive).
In the case of N#Cc1c(N2CCCCC2)nc(N2CCCCC2)c2c1CCN(Cc1ccccc1)C2, the EC50 [8] is reported as 0.505 µM (active), the EC50 [9] is reported as > 30 µM (not active) and the AC50 (INS1) is reported as 12.7 µM (active).
In the case of S=C(Nc1ccc(Br)cc1Cl)Nn1cnnc1, the IC50 [1] is reported as > 66 µM (inactive) and the IC50 [2] is reported as > 66 µM (inactive).
In the case of O=C(CNC(=O)C1CCCCC1)NC1=NCCS1, the EC50 [10] is reported as > 195 µM (not active), the IC50 [1] is reported as > 66 µM (inactive) and the IC50 [2] is reported as > 66 µM (inactive).
With COc1cc(C(=S)N2CCOCC2)cc(OC)c1OS(=O)(=O)c1ccc(C)cc1 the IC50 [1] was > 66 µM (inactive) and the IC50 [2] was > 66 µM (inactive).
